Laboratory results published in patent US20240207336A1, “PURIFIED PS[…] […] ACIDIFIED ACETONE” (PSILO SCIENTIFIC LTD, priority 2021, published 2024).

Assay: oxidation (decay) of psilocin over time, applicant's own data

## CN(C)CCc1c[nH]c2cccc(O)c12 [psilocin]
After 5 hours, moist and/or high light environment
  decay of psilocin (oxidation): ~25%
At 20 hours when shielded from light
  decay of psilocin (oxidation): 40-60%
Within 30 minutes, moist and/or high light environment
  decay of psilocin (oxidation): about 10%
